Data on ten molecules can be found in patent publication US4208410A, “Dibenzo[d,g][1,3,6]dioxazocine derivatives” (priority 1977, dated 1980).

One data set has as its system nicotine lethality. Kind of data set: animal or person. As to conditions: po; for ED50: Mus musculus, read-out: ED50, inhibition of nicotine lethality; for LD50/ED50, inhibition of nicotine lethality: mouse, in vivo. The data set is classed as in vivo, white mice. How it is done: (§1) This activity was tested on white mice, on the basis of the inhibition of tremor induced by tremorine [1,1'-(2-butynylene)-dipyrrolidine] and of nicotine lethality. For comparison Trihexyphenidyl [α-cyclohexyl-α-phenyl-1-piperidinepropanol hydrochloride] and L-DOPA [L-(-)-β-(3,4-dihydroxyphenyl)alanine] are used.

In data set [1] the test system is tremor induced by tremorine. Nature of the data set: Inhibition of tremor induced by tremorine (Science, 124, 79/1956/). Type of data set: in vivo, white mice. As to conditions: for ED50: Mus musculus, read-out: ED50, inhibition of tremor by tremorine. The protocol: as §1
Data set [2] can be described thus: Acute toxicity in white mice, peroral. As to conditions: mouse, in vivo, po, white mice CFLP. How it is done: Acute toxicity of the compounds was tested on white mice from the strain CFLP. Administration was effected perorally.
Data set [3] relates to mice. Kind of data set: Local anaesthetic activity (Acta Chirurg. Scand. 116, 351 (1958)). Type of data set: in vivo. As to conditions: for EC50 (concentration at which the local anaesthetic activity amounted to 50%): 0.25% and 0.5% solutions tested; for LD50/EC50: local anaesthetic activity. The protocol: In order to observe the local anaesthetic activity of the instant compounds 0.25% and 0.5% solution thereof were tested following the method described in Acta Chirurg. Scand. 116, 351 (1958). The test animals were mice.

Data set [4] deals with mice. Nature of the data set: Duration of the local anaesthetic effect. Type of data set: in vivo.

Where a name gives a salt, the structure may show the parent alone. Read-outs that look alike come from different tables or passages of the source.

The term ED50 denotes the midpoint of the dose-response relation. Usually LD50 stands for the dose expected to kill half of the subjects tested. A high value points to lower toxicity. As for `CN(C)CCCN1c2cc(Cl)ccc2OCOc2ccc(Cl)cc21` [Example 15, 2,10-Dichloro-12H-12-(3-dimethylaminopropyl)-dibenzo[d,g][1,3,6]dioxazocinemaleinate], in the data set with nicotine lethality, the ED50 was found to be 9 mg/kg and the “LD50/ED50, inhibition of nicotine lethality” value turned out to be 35.6. For the same molecule, the ED50 in data set [1] (po, white mice) came out at 4.3 mg/kg. In data set [1] (mouse, in vivo, po), the “LD50/ED50, inhibition of tremor by tremorine” value is given as 74.4. The molecule further gave an LD50 in data set [2] of 320 mg/kg.
In the case of `Clc1ccc2c(c1)N(CCN1CCOCC1)c1ccccc1OCO2` [Example 8, 2-Chloro-12H-12-(2-morpholinoethyl)-dibenzo[d,g][1,3,6]dioxazocine maleinate], in the data set with nicotine lethality, the ED50 was 140 mg/kg and the “LD50/ED50, inhibition of nicotine lethality” value was found to be 14. Further, the LD50 in data set [2] is greater than 2000 mg/kg.
As to `CCN(CC)CC(=O)Nc1c(C)cccc1C` [Lidocaine, 2-diethylamino-2',6'-acetoxy-xylidide, reference compound], the “EC50 (concentration at which the local anaesthetic activity amounted to 50%)” value with mice [3] was determined as 0.18%. In addition, the “Duration of the effect” value was determined as 25 min in the data set on mice [4] (0.25% solution) and 37 min in the data set with mice [4] (0.5% solution).
In turn, `Clc1ccc2c(c1)Nc1ccccc1OCO2` [Example 1, 2-Chloro-12H-dibenzo[d,g][1,3,6]dioxazocine] returned an LD50 in data set [2] greater than 2000 mg/kg.
Take `Clc1ccc2c(c1)N(CCN1CCCCC1)c1ccccc1OCO2` [Example 5, 2-Chloro-12H-12-(2-piperidinoethyl)-dibenzo[d,g][1,3,6]dioxazocine hydrochloride]: in the data set with mice [3], the “EC50 (concentration at which the local anaesthetic activity amounted to 50%)” value is 0.32% and the LD50/EC50 is recorded as 2180. In the data set on nicotine lethality, the ED50 turned out to be 60 mg/kg and the “LD50/ED50, inhibition of nicotine lethality” value turned out to be 12. Moreover, in data set [1] (po, white mice), the median effective dose (ED50) worked out at 18 mg/kg. In data set [1] (mouse, in vivo, po), the “LD50/ED50, inhibition of tremor by tremorine” value amounted to 38.9. Moreover, the “Duration of the effect” value in the data set on mice [4] (0.25% solution) stood at 34 min. Besides, in the data set with mice [4] (0.5% solution), the “Duration of the effect” value is 65 min. In data set [2], this molecule showed an LD50 of 700 mg/kg.
For the molecule `CC(CN(C)C)CN1c2ccccc2OCOc2ccc(Cl)cc21` (stereo not shown) [Example 6, 2-Chloro-12H-12-(2-methyl-3-dimethylaminopropyl)dibenzo[d,g][1,3,6]dioxazocine hydrochloride], in the data set on mice [3], the “EC50 (concentration at which the local anaesthetic activity amounted to 50%)” value stood at 0.12% and the LD50/EC50 came to 2250. For the same molecule, the “LD50/ED50, inhibition of nicotine lethality” value with nicotine lethality was 25. In data set [1] (po, white mice), the ED50 came out at 11 mg/kg. In data set [1] (mouse, in vivo, po), the “LD50/ED50, inhibition of tremor by tremorine” value was found to be 25. Also, the “Duration of the effect” value in the data set with mice [4] (0.25% solution) was 67 min. Besides, the “Duration of the effect” value in the data set on mice [4] (0.5% solution) was found to be 161 min. Besides, the LD50 in data set [2] came out at 270 mg/kg.
Take `Cl.OC(CCN1CCCCC1)(c1ccccc1)C1CCCCC1` (stereo not drawn) [Trihexyphenidyl, α-cyclohexyl-α-phenyl-1-piperidinepropanol hydrochloride, reference compound]: the ED50 worked out at 80 mg/kg in the data set on nicotine lethality and 15 mg/kg in data set [1] (po). Further, the “LD50/ED50, inhibition of tremor by tremorine” value in data set [1] (p.o., white mice) is 24.
On to `CN1CCN(CCN2c3ccccc3OCOc3ccc(Cl)cc32)CC1` [Example 7, 2-Chloro-12H-12-[2-(N-methylpiperazino)-ethyl]dibenzo[d,g][1,3,6]dioxazocine dihydrochloride], for which, in the data set on mice [3], the “EC50 (concentration at which the local anaesthetic activity amounted to 50%)” value came to 0.13% and the LD50/EC50 is 4600. The ED50 in data set [1] (po, white mice) was found to be 30 mg/kg. For the same molecule, the “LD50/ED50, inhibition of tremor by tremorine” value in data set [1] (mouse, in vivo, po) stood at 20. In the data set on mice [4] (0.25% solution), the “Duration of the effect” value amounted to 53 min. Besides, the “Duration of the effect” value with mice [4] (0.5% solution) was 260 min. In data set [2], this molecule returned an LD50 of 600 mg/kg.
On to `CN(C)CCCN1c2ccccc2OCOc2ccc(Cl)cc21` [Example 3, 2-Chloro-12H-12-(3-dimethylaminopropyl)-dibenzo[d,g][1,3,6]dioxazocine maleinate], for which, in the data set on mice [3], the “EC50 (concentration at which the local anaesthetic activity amounted to 50%)” value is 0.15% and the LD50/EC50 was 5060. Further, in the data set with nicotine lethality, the ED50 is 14 mg/kg and the “LD50/ED50, inhibition of nicotine lethality” value was 54. For the same molecule, in data set [1] (po, white mice), the ED50 was 8 mg/kg. For the same molecule, the “LD50/ED50, inhibition of tremor by tremorine” value in data set [1] (mouse, in vivo, po) was determined as 95. Also, in the data set with mice [4] (0.25% solution), the “Duration of the effect” value was determined as 71 min. In addition, in the data set with mice [4] (0.5% solution), the “Duration of the effect” value is 103 min. The same molecule yielded an LD50 in data set [2] of 760 mg/kg.
For the molecule `N[C@@H](Cc1ccc(O)c(O)c1)C(=O)O` [L-DOPA, L-(-)-β-(3,4-dihydroxyphenyl)alanine, reference compound], in the data set with nicotine lethality, the ED50 came out at 500 mg/kg and the “LD50/ED50, inhibition of nicotine lethality” value is listed as less than 10. The ED50 in data set [1] (po, white mice) is greater than 500 mg/kg. Also, the “LD50/ED50, inhibition of tremor by tremorine” value in data set [1] (mouse, in vivo, po) is given as less than 5.
